The results in this text go back to patent US5462861A, “Method for improving enzyme activities with noble gases” (American Air Liquide, Chicago Research Center, priority 1993, dated 1995).

For one experiment, the system named is Acetyl S-CoA synthetase. Put plainly: Acetyl S-CoA synthetase activity under gas (coupled sequence or isolated reaction). The experiment is classed as biochemical. To be noted: for Maximum observed enhancement / maximum observed inhibition: depending upon temperature. On the procedure: (§1) Solution preparation: Optimized w/v solutions are prepared by diluting the enzyme (units/ml) and the substrate (μg/ml) in appropriate buffer (optimized pH and molarity for enzymes). The solutions are used for gas experiments at once to avoid loss of activity. Various enzyme and substrate concentrations and inhibitors may be employed. Physical parameters are varied as required.
(§2) Preparation of samples: Cuvets are filled with 2 ml of substrate solution by means of a gas-tight syringe. Gas-tight serum vials are filled with enzyme and solvent. Sufficient gas is consecutively bubbled in the cuvets and serum vials, with a 1-hr wait between injections to maximize equilibration of gas. All syringes and dead spaces are purged before filling with the appropriate gas. The amount of gas used has been measured sufficient to saturate the solution required.
(§3) Spectrophotometric time-drive, reaction rate, and kinetic analyses: cuvets and serum vials are saturated with gas 40 minutes before the run. A gas-filled syringe is used to retrieve 0.5 ml of enzyme solution to avoid air contact. The 0.5 ml syringe injections of enzyme are made simultaneously to effect a common starting time to for the samples. 7 gases (air, O2, N2, Ne, Ar, Kr, Xe) are run at various temperatures each (from 0° to 60° ). Changes in the rate or final equilibrium of the reaction versus ambient air are recorded. Comparison is also made with added oxygen, and with deoxygenation. Some samples are also prepared under pressure.
Maximum observed enhancement vs maximum observed inhibition (depending upon temperature):
In a coupled complex reaction sequence including hydrolytic enzymes: […]

Experiment [1] concerns Tyrosinase. Nature of the experiment: High pressure experiments, tyrosinase. The experiment is classed as biochemical, Mushroom. The following applies: for % inhibition of gases relative to 1 atmosphere of air: value before the slash (not pressurized). On the procedure:
Shake the enzyme in each cylinder for several minutes and then remove a 5 ml sample for Control B and Control C. Remove cylinders to the dock, gassing with the appropriate gas; bring pressure slowly up to 30.6 atm. Let sit at the required pressure for 60 minutes. Slowly depressurize to 2 psi before bringing into the lab. Bring the cylinders back to the dock and repressurize to 100 atm with the appropriate gas. Let sit at the required pressure for 60 minutes. Slowly depressurize to 2 psi before bringing into the lab. […] Shake the enzyme in each cylinder for several minutes and then remove a 5 ml sample for Control B and Control C. Remove cylinders to the dock, gassing with the appropriate gas. Remove headspace/residual gas by pressurizing and depressurizing the gas cylinder several times. Bring pressure slowly up to 30.6 atm. Let sit at the required pressure for 60 minutes. Slowly depressurize to 40 psi before bringing into the lab. Enzyme injection: […] The cylinders were pressurized as described above. The cylinder pressure was released and the cylinders repressurized 10 times to remove O2 from the cylinders. Final Pressurization: […] Cylinder 3 was pressurized to 1 atm with Xe then pressurized to 30.6 atm with N2 to conserve Xe. Time Table: […] Due to the fact that on 4/25/91 the spectrophotometers were being used at 5° C. for a different experiment the decision was made to sample the cylinders at the end of the day when the spectrophotometer was available to be put at 25° C. Sampling took place 28 hours after pressurization. A spectro/gas run was immediately preformed on these samples. Apr. 25, 1991 Repressurization: Cylinders were repressurized at 6:00 pm on 4/25/91 to 100 atm. These cylinders will be sampled at 2:00 pm Apr. 26, 1991 (20 hrs after pressurization). Cuvettes were filled for the 2 atm experiments for both enzymes. Each cuvette was gassed 10×10 cc with the appropriate gas and refrigerated for 15 minutes prior to running. Serum vials were filled with 5 cc of the corresponding enzyme and gassed with 10×10 cc of the appropriate gas prior to running. The spectrophotometers were set up such that a continuous flow of each gas could be delivered to each spectro at all times. A 100 […] gauge was installed to read the cuvette pressure and 2 on/off valves were installed so that the reference cell could be pressurized during the second replicate. A ball valve was installed between the cylinder/house line and the gauge so that gas flow could be controlled directly at the spectrophotometers. A check valve was placed in each line to ensure that a back pressure would not cause contamination of the house lines or the gas cylinders. The cuvettes retained the 2 needles during the entire run. One of the needles was attached to the gas line while the second was used for enzyme introduction and then plugged. Due to the bulky nature of the assembly it was impossible to use the installed doors of the spectrophotometers therefore they were removed. A 4-layer thick black felt cover was prepared for each spectro to minimize the amount of light entering the system. While the cuvette was equilibrating to temperature in the spectrophotometer both needles remained in the cuvette with 10 cc syringes still attached. Prior to enzyme introduction one of the syringes was removed while the gas line was attached to the needle. A small flow of gas run through the line while this was done to ensure that there was no oxygen contamination. The needles remained above the liquid level. The second syringe was removed to allow constant flow through the cuvette. The enzyme was injected through the second needle using a 1 cc syringe. The needle was then plugged, the cuvette pressurized and the run begun. A nonpressurized gas run using all four gases was done for each enzyme. Each cuvette was gassed with 10×10 cc of the corresponding gas and refrigerated for 15 minutes. The 2 needles used for gassing the cuvettes were removed when the cuvettes were placed into the spectrophotometer. […]

Experiment [2] relates to Tyrosinase. Nature of the experiment: Gas mixture experiment, tyrosinase. The following applies: inhibition vs. air control, 25° C. Type of experiment: biochemical, Mushroom. The protocol: In addition to mixes of noble gases with nitrogen and oxygen, and of mixes of Kr and Xe, serial mixes of Ar and either Xe or Kr were tested. Results for tyrosinase expressed as inhibition vs. air control: Apr. 18, 1991: Gas mix prep: 120 cc serum vials were used to mix the gassed in. These vials were purged using vacuum while 1 atm of argon was maintained in the vial. The vials were purged for 20 seconds in this manner. The vials were under slight pressure which was released through a needle. This is considered 120 cc of Argon. The necessary volumes of Argon and the gas to be mixed with (Xe or Kr) were then introduced into the vials using a 30 cc syringe and needle. We gassed the enzyme using 1 vial of gas mix using 8×10 cc of gas out of the vial. We gassed the cuvette/substrate using a second vial of gas mix using 8×10 cc of gas out of the vial. Argon and Xenon were retrieved from the gas cylinders. […] We determined that we would be unable to retrieve 8×10 cc of gas mix from 1 vial. […] We prepared the Ar/Kr mixes as described above and did 2 replicates of the 10% and 50% mixes.

A further experiment concerns oxidoreductase enzymes. Nature of the experiment: Oxidoreductases, effects for the class. The experiment is classed as biochemical. To be noted: for Maxima for class: effect: Class I oxidoreductases, minus = inhibition. The protocol:
as §1, §2, §3
In a complete experiment, an enzyme at optimal pH and buffering salt concentration is reacted with 5 substrate concentrations in solution with noble gas at 1 atm. […] Controls are also run after evacuation of solution by vacuum. The reaction is monitored colorimetrically in a scanning spectrophotometer in real time, and the signals are treated mathematically to obtain rate and yield differences. Sample numbers are constant and sufficient to ensure significance of results. All parameters are independently controlled and measured, and more complex experiments are occasionally carried out.

Where [3] appears, read: coupled complex reaction sequence including hydrolytic enzymes.
The mark [4] stands for this setting: 30.6 atm (24 hr), Xe = Xe 1 atm/N2 to pressure.
The mark [5] stands for this setting: 100 atm (~24 hr), Xe = Xe 1 atm/N2 to pressure.

For the compound `[Kr]` [Kr, krypton], the “effect on S-acetyl CoA synthetase” value in the experiment on Acetyl S-CoA synthetase (25° C., FIG. 36) is listed as “enhancement”. In the experiment with Acetyl S-CoA synthetase (setting [3]), the Maximum observed enhancement entry is “+16.1%” and the maximum observed inhibition was -34.6%. Moreover, in the experiment with Acetyl S-CoA synthetase (isolated reaction), the Maximum observed enhancement entry is recorded as “+5.0%” and the maximum observed inhibition is given as -52.6%. Also, the “inhibition relative to 1 atmosphere after pressurization” value (shortened to “inhibition relative to 1 atmosphere”) in the experiment with Tyrosinase [1] (2 atm) is reported as -93.1%. Further, the “% inhibition of gases relative to 1 atmosphere of air” value in the experiment on Tyrosinase [1] (2 atm experiment) is recorded as -84.5%. Besides, the “% inhibited” value in the experiment on Tyrosinase [2] (Mix = % Kr in Ar) is -77%. Besides, in the experiment with oxidoreductase enzymes, the “effect on oxidoreductase reactions” value is on record as “somewhat lesser effect than xenon” and the “Maxima for class: effect” value is listed as -91%.
`[Ne]` [Ne, neon]: in the experiment on Acetyl S-CoA synthetase (setting [3]), the Maximum observed enhancement result is on record as “+2.3%” and the maximum observed inhibition is -21.9%. Besides, the “inhibition relative to 1 atmosphere” value with Tyrosinase [1] (2 atm) was -84.5%. For the same compound, the “% inhibition of gases relative to 1 atmosphere of air” value in the experiment with Tyrosinase [1] (2 atm experiment) is -69.0%. Also, in the experiment on oxidoreductase enzymes, the “Maxima for class: effect” value was -85%.
`[Ar]` [Ar, argon]: the figures for the Maximum observed enhancement entry in the experiment with Acetyl S-CoA synthetase (setting [3]) and with Acetyl S-CoA synthetase (isolated reaction) were “+67.7%” and “+75.4%”, respectively. In addition, the maximum observed inhibition entry is recorded as “+34.6%” in the experiment with Acetyl S-CoA synthetase (setting [3]) and -27.6% in the experiment on Acetyl S-CoA synthetase (isolated reaction). The “inhibition relative to 1 atmosphere” value in the experiment with Tyrosinase [1] (2 atm) was -90.4%; with Tyrosinase [1] (3 atm), -72.1%. Further, the “% inhibition of gases relative to 1 atmosphere of air” value in the experiment on Tyrosinase [1] (2 atm experiment) is -76.9%; in the experiment on Tyrosinase [1] (3 atm experiment), -55.8%. Further, the “% inhibited” value in the experiment on Tyrosinase [2] (Mix = % Kr in Ar) and in the experiment on Tyrosinase [2] (Mix = % Xe in AR) was -75% throughout. For the same compound, in the experiment with oxidoreductase enzymes, the “effect on oxidoreductase reactions” value is given as “very active at low temperatures”. The “Maxima for class: effect” value in the experiment with oxidoreductase enzymes is -91%.
For `[Xe]` [Xe, xenon], the Maximum observed enhancement entry is reported as “+18.3%” in the experiment with Acetyl S-CoA synthetase (setting [3]) and “+15.4%” in the experiment on Acetyl S-CoA synthetase (isolated reaction). Besides, the maximum observed inhibition in the experiment with Acetyl S-CoA synthetase (setting [3]) is reported as -25.0%; with Acetyl S-CoA synthetase (isolated reaction) it was -39.5%. The “inhibition relative to 1 atmosphere” value in the experiment with Tyrosinase [1] (2 atm) is reported as -86.2%; in the experiment with Tyrosinase [1] (setting [4]) it was -87.0%; in the experiment with Tyrosinase [1] (setting [5]) it was -85.7%. Moreover, the “% inhibition of gases relative to 1 atmosphere of air” value with Tyrosinase [1] (2 atm experiment) was -76.0%. Also, the effect on tyrosinase result with Tyrosinase [1] (30 atm. pressure, FIG. 39) was “inhibitory effect”; with Tyrosinase [1] (100 atm. pressure, FIG. 40), “inhibitory effect”. Moreover, the “change in relative effect” value with Tyrosinase [1] (effect of pressure) stood at 75%. The “% inhibited” value with Tyrosinase [2] (Mix = % Xe in AR) was -86%. Besides, the “effect on oxidoreductase reactions” value in the experiment with oxidoreductase enzymes is given as “largest effect on the rate”. For the same compound, in the experiment on oxidoreductase enzymes, the “Maxima for class: effect” value was -95%.
Regarding `N#N` [N2, nitrogen, reference compound], in the experiment on Acetyl S-CoA synthetase, the “effect on acetyl S-CoA synthetase compared with noble gases” value is “much lesser effect than noble gases except at superoptimal temperatures”. In addition, the Maximum observed enhancement result in the experiment with Acetyl S-CoA synthetase (setting [3]) is “+31.2%”; in the experiment on Acetyl S-CoA synthetase (isolated reaction) it was “+35.7%”. The maximum observed inhibition is -39.5% with Acetyl S-CoA synthetase (setting [3]) and -118.7% in the experiment with Acetyl S-CoA synthetase (isolated reaction). Besides, the “inhibition relative to 1 atmosphere” value in the experiment on Tyrosinase [1] (2 atm) is given as -88.5%; in the experiment with Tyrosinase [1] (3 atm), -82.6%; in the experiment with Tyrosinase [1] (30.6 atm (1 hr)), -15.4%; in the experiment with Tyrosinase [1] (setting [4]) it was -78.8%; in the experiment with Tyrosinase [1] (100 atm (1 hr)) it was -20.0%; in the experiment on Tyrosinase [1] (setting [5]), -84.7%. For the same compound, the “% inhibition of gases relative to 1 atmosphere of air” value is recorded as -71.2% in the experiment with Tyrosinase [1] (2 atm experiment) and -72.1% in the experiment with Tyrosinase [1] (3 atm experiment). Further, the effect on tyrosinase entry in the experiment with Tyrosinase [1] (30 atm. pressure, FIG. 39) is listed as “inhibitory effect”; in the experiment with Tyrosinase [1] (100 atm. pressure, FIG. 40), “inhibitory effect”.
